Experimental data taken from patent US20060009433A1, “Neuroprotective spirostenol pharmaceutical compositions” (priority 2003, published 2006).
Entries after “also recorded” stand apart in the source; their conditions may differ.

Tests used:
[1] = test system: PC12 cells (rat pheochromocytoma neurons); test: MTT cytotoxicity assay, Aβ-induced neurotoxicity in PC12 cells (Example II); format: cell-based; conditions: for neuroprotection against Aβ-induced neurotoxicity (structure/activity discussion): PC12 cells; for neuroprotective effect compared with SP222: 0.1 μM Aβ
Protocol: (§1) PC12 cells (rat pheochromocytoma neurons) from ATCC (Manassas, Va.) were cultured at 37° C. and 5% CO2 in RPMI 1640 medium devoid of glutamine and supplemented with 10% fetal bovine serum and 5% horse serum. Yao Z, Drieu K and Papadopoulos V., The Gingko biloba extract EGb 761 rescues PC12 neuronal cells from β-amyloid-induced cell death by inhibiting the formation of (3-amyloid-derived diffusible neurotoxic ligands, Brain Res, 889, 181-190 (2001). Cells were seeded in 96-well plates (8×10^4 cells/well). After an overnight period of incubation, increasing concentrations of aggregated Aβ (0.1, 1 and 10 μM) were added to the cells in the presence or absence of the indicated concentrations of the SP compounds to be tested. After 72-hours incubation time various parameters, markers of cell viability, were determined. Mouse MA-10 tumor Leydig cells were maintained at 37° C. in DMEM/Ham's F12 (Biofluids, Rockville, Md.) medium supplemented with 5% heat-inactivated fetal calf serum and 2.5% horse serum in 5% CO2. Cells were plated on 96-well plates at the density of 2.5×10^4 cells/well for overnight. The cells were stimulated with the indicated concentrations of the various SP compounds in 0.2 ml/well serum-free medium for 2 hours. The culture medium was collected and tested for progesterone production by radioimmunoassay.
The cellular toxicity of Aβ was assessed using the 3-(4,5-dimethylthiazol-2-yl)-2,5-diphenyl tetrazolium bromide (MTT) assay (Trevigen, Gaithersburg, Md.). Briefly, 10 μl of the MTT solution were added to the cells cultured in 100 μl medium. After an incubation period of 4 hours, 100 μl of detergent were added and cells were incubated overnight at 37° C. Formazan blue formation was quantified at 600 nm and 690 nm using the Victor quantitative detection spectrophotometer (EGG-Wallac, Gaithersburg, Md.) and the results expressed as (DO600-DO690). […] Liu Y and Schubert D, Steroid hormones block amyloid fibril-induced 3-(4,5-dimethylthiazol-2-yl)-2,5-diphenyltetrazolium bromide (MTT) formazan exocytosis: relationship to neurotoxicity, J. Neurochem., 19, 1639-1662 (1998). For that reason, additional cytotoxicity and cell viability assays were used.
Yao et al., J. Neurochem., 83, 1110-1119 (2002); and Yao et al., The Gingko biloba extract EGb 761 rescues PC12 neuronal cells from β-amyloid-induced cell death by inhibiting the formation of β-amyloid-derived diffusible neurotoxic ligands, Brain Res., 889, 181-190 (2001). To stay close to the concentrations of Aβ present in AD brain, 0.1-10 μM concentrations of Aβ were used. The compounds tested for their neuroprotective properties were examined at 30 and 50 μM concentrations (FIGS. 9-15).

PC12 cells = test: Cellular ATP levels (ATPLite-M) in Aβ-treated PC12 cells; format: cell-based, rat; conditions: 0.1 and 1.0 μM Aβ
Protocol: as §1
Cellular ATP concentrations were measured using the ATPLite-M™ luminescence assay (Packard BioSciences Co.). For this assay, cells were cultured on black 96-well ViewPlate™ and the ATP concentrations were measured on a TopCount NXT™ counter (Packard BioSciences Co.) following the recommendations of the manufacturer.

Aβ = molecular target: T1, Aβ (Homo sapiens, UniProt P05067); test: CPBBA displacement of radiolabeled 22R-hydroxycholesterol from Aβ (Example II); format: binding; conditions: 100 μM unlabeled compound; 50 μM Aβ
T1 construct: Aβ1-42 peptide was purchased from American Peptide Co; purchased American Peptide Co. (Sunnyvale, Calif.)
Protocol: At the end of the incubation time, samples were separated by 1.5% agarose (Type I-B) gel electrophoresis under native conditions and transferred to nitrocellulose membrane (Schleicher&Schuell, Keene, N.H.) in 10×SSC buffer. The membrane was exposed to tritium-sensitive screen and analyzed by phosphoimaging using the Cyclone Storage phosphor system (Packard BioScience). Image-densitometric analysis was performed using the OptiQuant software (Packard BioScience). […] Low molecular weight unincorporated 22R-hydroxycholesterol and derivatives are separated and eliminated during electrophoresis.

rat PC12 neuronal cells = test: MTT assay, Aβ1-42-induced cytotoxicity in PC12 cells (Example I); conditions: MTT
NT2 cells [2] = test: NT2 cell differentiation, phase-contrast morphology; format: cell-based, human; conditions: 25 μM; 3, 6 and 12 days (comparators 6 days)
NT2 cells [3] = test: BrdU assay, NT2 cell proliferation; format: cell-based, human; conditions: 50 μM
rat PC12 cells = test: Trypan blue dye exclusion assay, PC12 cells (Example I); format: cell-based; conditions: 100 μM steroid, 72 hours
Protocol: (§2) Rat PC12 cells were cultured as previously described. Yao et al., Brain Res. 889, 181-190 (2001). Human NT2 precursor (Ntera2/D1 teratocarcinoma) cells were obtained from Stratagene (La Jolla, Calif.) and cultured following the instructions of the supplier. Differentiated human NT2 neurons (NT2N) were obtained after treatment of the NT2 precursor cells with retinoic acid. Andrews, Dev. […] Aβ was dissolved in media and used either in the aggregated (left overnight at 4° C.) or soluble (containing oligomers such as dimers and tetramers) forms examined by electrophoresis as previously described. Yao et al., Brain Res. (2001). […] Id. Cell viability was measured using the trypan blue exclusion method as previously described. Id. In brief, for these studies, cells were treated for 72 hours with steroids in the presence or absence of increasing concentrations of Aβ. At the end of the incubation, the cells were washed three times with PBS and incubated for 15 minutes with 0.1% trypan blue stain solution at room temperature. After washing three times with PBS, 0.1 N NaOH was added to the cells and trypan blue staining was quantified using the Victor quantitative detection spectrophotometer (EGG-Wallac, Gaithersburg, Md.) at 450 nm. Cell protein levels were determined in the same samples by the method of Bradford (Bradford, Anal. Biochem., 72, 248-254 (1976)), where coomassie blue staining is detected at 590 nm.
(§3) The results obtained from using MTT assay were further confirmed with the trypan blue dye exclusion assay. […] Levels of viability were measured using the trypan blue assay as described under Materials and Methods. Results are expressed as fold trypan blue stained cells per total cell protein over control untreated cells. Results shown are means±SD (n=6-12).

human NT2 cells = test: Trypan blue dye exclusion assay, NT2 cells; format: cell-based; conditions: 25 μM steroid, 72 hours
Protocol: as §2, §3

[4] = MTT, compounds at 30 and 50 μM, 72 hours

T1 sequence (P05067 672-713): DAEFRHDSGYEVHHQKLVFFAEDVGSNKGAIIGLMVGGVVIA

## CC1CCC2(OC1)OC1CC3C4CC=C5CC(OC(=O)c6ccccc6)CCC5(C)C4CCC3(C)C1C2C [SP232, (22R,25ζ)-(20α)-spirost-5-en-3β-yl benzoate]
[1]
  neuroprotection against Aβ-induced neurotoxicity (structure/activity discussion): not effective in neuroprotection

## C[C@H]1CC[C@@]2(OC1)O[C@H]1C[C@H]3[C@@H]4CC=C5C[C@@H](O)CC[C@]5(C)[C@H]4CC[C@]3(C)[C@H]1[C@@H]2C [SP235, (22R,25S)-(20α)-spirost-5-en-3β-ol]
PC12 cells
  reversal of Aβ-induced decrease in ATP levels: did not block
[1]; MTT
  neuroprotective effect compared with SP222: significantly more robust effect than SP222
[1]; [4]
  neuroprotection against 0.1 μM Aβ-induced neurotoxicity: displayed neuroprotective activity
  neuroprotection against 10 μM Aβ-induced neurotoxicity: exhibited neuroprotective activity
[1]
  neuroprotection against Aβ-induced neurotoxicity (structure/activity discussion): limited neuroprotection acting only against 0.1 μM Aβ

## (20ζ)-26-acetylamino-(22ζ)-ethoxyfurost-5-en-3ζ-yl acetate [SP228]
[1]; [4]
  neuroprotection against 0.1 μM Aβ-induced neurotoxicity: displayed neuroprotective activity

## (22R,25S)-(20α)-spirost-5-en-3β-yl succinate [SP236]
PC12 cells
  reversal of Aβ-induced decrease in ATP levels: able to reverse; also recorded: blocked, although in part
[1]; MTT
  neuroprotective effect compared with SP222: significantly more robust effect than SP222
[1]; [4]
  neuroprotection against 0.1 μM Aβ-induced neurotoxicity: displayed neuroprotective activity
  neuroprotection against 1 μM Aβ-induced neurotoxicity: maintained their neuroprotective properties
  neuroprotection against 10 μM Aβ-induced neurotoxicity: exhibited neuroprotective activity
[1]
  neuroprotection against Aβ-induced neurotoxicity (structure/activity discussion): active against higher Aβ concentrations

## C[C@H]1CC[C@@]2(OC1)O[C@H]1C[C@H]3[C@@H]4CC=C5CC(O)CC[C@]5(C)[C@H]4CC[C@]3(C)[C@H]1[C@@H]2C (stereo partly drawn) [SP231, (22R,25S)-(20ζ)-spirost-5-en-3ζ-ol]
[1]
  neuroprotection against Aβ-induced neurotoxicity (structure/activity discussion): only SP235 is protective

## (20ζ)-25ζ-methyl-N-acetyl-(22R,26)-azacyclofurost-5-en-3ζ-ol [SP226]
Aβ
  displacement of radiolabeled 22R-hydroxycholesterol binding to Aβ: 65%
[1]
  neuroprotection against Aβ-induced neurotoxicity (structure/activity discussion): did not offer neuroprotection

## CC(C)CCC[C@@H](C)[C@H]1CC[C@H]2[C@@H]3CC=C4C[C@@H](O)CC[C@]4(C)[C@H]3CC[C@]12C [cholesterol, 5-cholesten-3β-ol]
Rat PC12 neuronal cells
  effect on toxicity of low concentrations of Aβ: accentuated the toxic effect of low concentrations of Aβ
Rat PC12 neuronal cells; Aβ1-42
  neuroprotective effect against Aβ-induced neurotoxicity: could not be replicated
NT2 cells [2]
  effect on NT2 cell morphology (differentiation): could not be replicated

## CC(=O)[C@@]1(O)CC[C@H]2[C@@H]3CC=C4C[C@@H](O)CC[C@]4(C)[C@H]3CC[C@@]21C [17α-hydroxypregnenolone, 5-pregnen-3β, 17α-diol-20-one]
Rat PC12 neuronal cells; absence of Aβ
  PC12 cell viability, steroid alone: toxic to the cells

## CC(=O)[C@H]1CC[C@H]2[C@@H]3CCC4=CC(=O)CC[C@]4(C)[C@H]3CC[C@]12C [progesterone]
NT2 cells [2]
  effect on NT2 cell morphology (differentiation): could not be replicated
NT2 cells [3]
  NT2 cell proliferation at 50 μM: significantly inhibited

## CC1CCC2(OC1)OC1CC3C4CC=C5CC(O)C(O)CC5(C)C4CCC3(C)C1C2C [SP227, (22R,25ζ)-(20α)-spirost-5-en-(2α,3ζ)-diol]
Aβ
  displacement of radiolabeled 22R-hydroxycholesterol binding to Aβ: 38%

## CC(=O)OC1CC[C@@]2(C)C(=CC[C@H]3[C@@H]4CC(OC(C)=O)[C@H]([C@H](C)C(CCC(C)CN(C(C)=O)C(C)=O)OC(C)=O)[C@@]4(C)CC[C@@H]32)C1 (some centres unmarked) [SP237, 26-diacetylamino-(22ζ)-acetoxy-(16ζ)-acetoxy-cholest-5-en-yl acetate]
Aβ
  displacement of radiolabeled 22R-hydroxycholesterol binding to Aβ: 46%
[1]; [4]
  neuroprotection against 0.1 μM Aβ-induced neurotoxicity: displayed neuroprotective activity

## C[C@]12CC[C@H](O)CC1=CC[C@@H]1[C@@H]2CC[C@]2(C)C(=O)CC[C@@H]12 [DHEA, 5-androsten-3β-ol-17-one]
Rat PC12 neuronal cells; 100 μM steroid
  PC12 cell viability, steroid alone at 100 μM: positive effect on cell viability
Rat PC12 cells
  rescue from Aβ1-42-induced cell death: protected
  rescue from Aβ25-35-induced cell death: Neither 22R-hydroxycholesterol nor DHEA could rescue
NT2 cells [2]
  effect on NT2 cell morphology (differentiation): could not be replicated
Human NT2 cells
  rescue from Aβ1-42-induced cell death: had no effect
  rescue from Aβ25-35-induced cell death: Neither 22R-hydroxycholesterol nor DHEA could rescue

## (20α)-25ζ-methyl-N-paratoluenesulfonyl-(22R,26)-azacyclofurost-5-en-3ζ-yl paratoluenesulfonate [SP229]
[1]; [4]
  neuroprotection against 0.1 μM Aβ-induced neurotoxicity: displayed neuroprotective activity
